Results as given in US20120214778A1 (priority 2009, published 2012).

How the values were obtained:
[1] = CONFIRM phase III study: safety and tolerability (adverse events); assay type: in vivo, postmenopausal women
Description: Outcome variables for safety were frequency and severity of adverse events (AEs), including pre-specified AEs of interest.
Patients could be discontinued from study treatment and assessments at any time at the discretion of the investigators. Patients were also free to discontinue their participation in the study at any time, without prejudice to further treatment. Specific reasons for discontinuing a patient from this study, and the procedures to be followed when a patient discontinued or was incorrectly enrolled, are listed in Section 3.3.5 of the CSP. For patients who discontinued, it was noted whether they were assessed after study medication was stopped, and whether they were asked about the reason(s) for their discontinuation and about the presence of any adverse events (AEs). If possible, they were seen and assessed by an investigator. AEs were followed up for 56 days after the last injection.

advanced breast cancer = conditions: 250 mg, cited from earlier work
[2] = tested on: oestrogen receptor positive advanced breast cancer; experiment: CONFIRM phase III study, fulvestrant 500 mg vs 250 mg: efficacy; conditions: for Number progressed / Number progressed (%): progressed or died at data cut-off; for Median DoR: from randomisation, patients with OR;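 as to all read-outs here: efficacy outcomes summarised by randomised treatment arm using the full analysis set of patients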
Description: The primary outcome variable TTP; secondary variables were ORR, CBR, DoR, DoCB and OS.
For the primary endpoint TTP, the primary analysis was an unadjusted log-rank test and the secondary analysis was a Cox proportional hazard model, adjusted for treatment and other predefined covariates.
For OS, the unadjusted log-rank test was performed. For ORR and CBR, a logistic regression model with treatment factor only was fitted. […] For HRQoL endpoints, a longitudinal model with treatment and other covariates was used.
For efficacy and HRQoL endpoints, summaries and analyses were carried out according to the randomised treatment i.e., using the Full Analysis Set. For safety endpoints, summaries and analyses were carried out according to the treatment actually received, i.e., using the safety analysis set. The primary endpoint was also analysed in the per protocol set (PPS).
Time to progression is the time between randomisation and the earliest of progression or death from any cause.

Structure (SMILES): C[C@]12CC[C@@H]3c4ccc(O)cc4C[C@@H](CCCCCCCCC[S+]([O-])CCCC(F)(F)C(F)(F)F)[C@H]3[C@@H]1CC[C@@H]2O (stereo partly drawn) [fulvestrant, 7alpha-[9-(4,4,5,5,5-pentafluoropentylsulfinyl)-nonyl]estra-1,3,5, (10)-triene-3, 17beta-diol]
- gastrointestinal disturbances (pre-specified AE), patients ([1]; 250 mg): approximately 20%
- joint disorders (pre-specified AE), patients ([1]; 250 mg): ~19%
- gastrointestinal disturbances (pre-specified AE), patients ([1]; 500 mg): approximately 20%
- joint disorders (pre-specified AE), patients ([1]; 500 mg): ~19%
- tolerability ([1]; 500 mg): well tolerated
- dose dependence of adverse events ([1]; 500 mg vs 250 mg): no evidence for dose dependence for any AE
- efficacy compared with anastrozole (advanced breast cancer; Studies 20/21): non-inferior to anastrozole
- Median TTP (advanced breast cancer; combined analysis of Studies 20/21): 5.5 months
- Time to progression (months): 25% quartile ([2]; 250 mg): 2.7 months
- Time to progression (months): 75% quartile ([2]; 250 mg): 11.9 months
- expected DoCB (EDoCB) ([2]; 250 mg): 7.24 months
- proportion of patients with a best objective response of progressive disease ([2]; 250 mg): 44.7%
- Median TTP ([2]; 250 mg im every 28 days, N = 374): 5.5 months
- Percentage of patients progression free at 6 months ([2]; 250 mg): 45%
- % patients progression free at 12 months ([2]; 250 mg): 25%
- % patients progression free at 12 months ([2]; 250 mg, listed as Fulvestrant): 25%
- Percentage of patients progression free at 18 months ([2]; 250 mg): 14%
- % patients alive at 24 months ([2]; 250 mg): fulvestrant 250 mg = 49%
- Percentage of patients progression free at 24 months ([2]; 250 mg): 11%
- Number progressed ([2]; 250 mg, N = 374): 321
- Number progressed (%) ([2]; 250 mg, N = 374): 85.8%
- Median DoR ([2]; 250 mg): 250 mg = 16.4 months
- Time to progression (months): 25% quartile ([2]; 500 mg): 2.8 months
- Time to progression (months): 75% quartile ([2]; 500 mg): 16.6 months
- expected DoCB (EDoCB) ([2]; 500 mg): 9.83 months
- proportion of patients with a best objective response of progressive disease ([2]; 500 mg): 38.7%
- reduction in risk of death ([2]; 500 mg compared with 250 mg): 16%
- reduction in risk of progression ([2]; 500 mg compared with 250 mg): 20%
- Median TTP ([2]; 500 mg im days 0, 14, 28 then every 28 days, N = 362): 6.5 months
- Ratio of EDoR (95% CI) ([2]; 500 mg vs 250 mg, from randomisation to progression): Ratio of EDoR = 0.894 (95% CI 0.479-1.667); p = 0.724
- Percentage of patients progression free at 6 months ([2]; 500 mg): 51%
- % patients progression free at 12 months ([2]; 500 mg): 34%
- % patients progression free at 12 months ([2]; 500 mg, listed as Fulvestrant): 34%
- Percentage of patients progression free at 18 months ([2]; 500 mg): 23%
- % patients alive at 24 months ([2]; 500 mg): % patients alive at 24 months: fulvestrant 500 mg = 53%;
- Percentage of patients progression free at 24 months ([2]; 500 mg): 16%
- Number progressed ([2]; 500 mg, N = 362): 297
- Number progressed (%) ([2]; 500 mg, N = 362): 82.0%
- Median DoR ([2]; 500 mg): Median DoR^c: fulvestrant 500 mg = 19.4 months; fulvestrant
